Results taken from the NIST ThermoML archive (doi:10.1021/je700321s).
Numbers after ± are expanded uncertainties.

Assay: xn = mol fraction of the nth substance listed
Details: Liquid, Vibrating tube method

CC(C)O [propan-2-ol] + O=C=O
Details | mass density [kg/m3]
308.12 K, 5038 kPa, x2 = 0.4248 | 808.2 ± 0.8
308.12 K, 5326 kPa, x2 = 0.4248 | 808.8 ± 0.8
308.12 K, 5517 kPa, x2 = 0.4248 | 809.2 ± 0.8
308.12 K, 6029 kPa, x2 = 0.4248 | 810.3 ± 0.8
308.12 K, 6505 kPa, x2 = 0.4248 | 811.3 ± 0.8
308.12 K, 6515 kPa, x2 = 0.4248 | 811.4 ± 0.8
308.12 K, 6714 kPa, x2 = 0.4248 | 811.8 ± 0.8
308.12 K, 7035 kPa, x2 = 0.4248 | 812.4 ± 0.8
308.12 K, 7207 kPa, x2 = 0.4248 | 812.8 ± 0.8
308.12 K, 7302 kPa, x2 = 0.9492 | 699.6 ± 2
308.12 K, 7402 kPa, x2 = 0.9492 | 704.9 ± 2
308.12 K, 7501 kPa, x2 = 0.4248 | 813.4 ± 0.8
308.12 K, 7605 kPa, x2 = 0.9492 | 713.8 ± 1.7
308.12 K, 7700 kPa, x2 = 0.4248 | 813.8 ± 0.8
308.12 K, 7802 kPa, x2 = 0.9492 | 720.9 ± 1
308.12 K, 8002 kPa, x2 = 0.9492 | 728 ± 1.3
308.12 K, 8024 kPa, x2 = 0.4248 | 814.4 ± 0.8
308.12 K, 8204 kPa, x2 = 0.9492 | 734.5 ± 1
308.12 K, 8404 kPa, x2 = 0.9492 | 740.3 ± 1.1
308.12 K, 8605 kPa, x2 = 0.9492 | 745.7 ± 1.1
308.12 K, 8606 kPa, x2 = 0.4248 | 815.6 ± 0.8
308.12 K, 8802 kPa, x2 = 0.4248 | 816 ± 0.8
308.12 K, 8802 kPa, x2 = 0.9492 | 750.6 ± 0.9
308.12 K, 9002 kPa, x2 = 0.4248 | 816.4 ± 0.8
308.12 K, 9004 kPa, x2 = 0.9492 | 755.4 ± 1
308.12 K, 9201 kPa, x2 = 0.9492 | 759.7 ± 0.9
308.12 K, 9408 kPa, x2 = 0.9492 | 764 ± 1
308.12 K, 9529 kPa, x2 = 0.4248 | 817.3 ± 0.8
308.12 K, 9610 kPa, x2 = 0.9492 | 768 ± 1
308.12 K, 9805 kPa, x2 = 0.9492 | 771.5 ± 0.9
308.12 K, 9898 kPa, x2 = 0.4248 | 818 ± 0.8
308.12 K, 10003 kPa, x2 = 0.9492 | 774.9 ± 1
308.12 K, 10202 kPa, x2 = 0.9492 | 778 ± 0.9
308.12 K, 10405 kPa, x2 = 0.9492 | 780.9 ± 0.9
308.12 K, 10617 kPa, x2 = 0.9492 | 783.7 ± 0.9
308.12 K, 10807 kPa, x2 = 0.9492 | 785.9 ± 0.9
308.13 K, 7456 kPa, x2 = 0.9715 | 611.7 ± 4.1
308.13 K, 7502 kPa, x2 = 0.9715 | 636.2 ± 4.7
308.13 K, 7992 kPa, x2 = 0.9715 | 680.6 ± 1.8
308.13 K, 8522 kPa, x2 = 0.9715 | 706.8 ± 1.2
308.13 K, 8997 kPa, x2 = 0.9715 | 724.3 ± 1.1
308.13 K, 9508 kPa, x2 = 0.9715 | 739.8 ± 1
308.13 K, 10027 kPa, x2 = 0.9715 | 752.9 ± 1
308.13 K, 10521 kPa, x2 = 0.9715 | 763.7 ± 0.9
308.13 K, 11017 kPa, x2 = 0.9715 | 773.2 ± 0.9
308.13 K, 11500 kPa, x2 = 0.9715 | 781.6 ± 0.9
308.13 K, 12008 kPa, x2 = 0.9715 | 789.6 ± 0.9
308.13 K, 12520 kPa, x2 = 0.9715 | 797.2 ± 0.9
308.13 K, 13012 kPa, x2 = 0.9715 | 803.8 ± 0.9
308.13 K, 13520 kPa, x2 = 0.9715 | 810.4 ± 0.9
308.13 K, 14014 kPa, x2 = 0.9715 | 816.4 ± 0.9
308.13 K, 14520 kPa, x2 = 0.9715 | 822.1 ± 0.9
308.13 K, 15000 kPa, x2 = 0.9715 | 827.3 ± 0.9
313.08 K, 7544 kPa, x2 = 0.7943 | 777.4 ± 1.3
313.08 K, 7601 kPa, x2 = 0.7943 | 778.5 ± 1.1
313.08 K, 7810 kPa, x2 = 0.7943 | 780.8 ± 0.9
313.08 K, 8013 kPa, x2 = 0.7943 | 783 ± 0.9
313.08 K, 8205 kPa, x2 = 0.7943 | 784.9 ± 0.9
313.08 K, 8410 kPa, x2 = 0.7943 | 786.8 ± 0.9
313.08 K, 8593 kPa, x2 = 0.7943 | 788.4 ± 0.8
313.08 K, 8800 kPa, x2 = 0.7943 | 790.3 ± 0.8
313.08 K, 8999 kPa, x2 = 0.7943 | 792.2 ± 0.8
313.08 K, 9208 kPa, x2 = 0.7943 | 794 ± 0.8
313.08 K, 9405 kPa, x2 = 0.7943 | 795.7 ± 0.8
313.08 K, 9619 kPa, x2 = 0.7943 | 797.5 ± 0.8
313.08 K, 9803 kPa, x2 = 0.7943 | 799 ± 0.8
